Source: publication PMC9735621, “Synthesis, Biological Evaluation and Computational Studies of New Hydrazide Derivatives Containing 1,3,4-Oxadiazole as Antitubercular Agents” (International Journal of Molecular Sciences, 2022)
Values joined by “and” are separate entries in the source; they are usually repeats but may differ in a detail not shown here. Identical values can stand only once. Like-named read-outs stand apart in the source and are kept apart here.

How the values were obtained:
M. tuberculosis H37Ra = assay: microbe, parasite or virus in culture; format: cell-based, Mycobacterium tuberculosis
M. tuberculosis H37Rv = assay: microbe, parasite or virus in culture; format: cell-based; conditions: Mycobacterium tuberculosis
SH-SY5Y cells = assay: Cytotoxicity, resazurin cell viability assay; format: cell-based, human; conditions: for Cytotoxicity (in words): SH-SY5Y cells, tested concentrations up to 100 μM; for Viability (%) vs DMSO: SH-SY5Y, 48 h, average ± SEM
Experimental: (§1) Cell viability was assayed by using Resazurin (SERVA Electrophoresis GmbH, Heidelberg, Germany). This cell-permeable dye is reduced by aerobic respiration of metabolically active cells to resorufin, whose fluorescence is proportional to the number of live cells. The stock solution of resazurin sodium salt (440 μM, 10×) was resuspended in Phosphate Buffered Saline (PBS) and stored at −20 °C. Working solution (44 μM) was prepared on the same day of each assay by diluting resazurin stock solution in a standard culture medium. The human neuroblastoma cell line SH-SY5Y was used to test the cytotoxicity of five selected compounds (1h, and 1k–n). The cells were maintained in Dulbecco’s modified Eagle’s medium (DMEM; Gibco, Life Technologies Inc., Frederick, MD, USA) supplemented with 10% (v/v) fetal bovine serum (FBS) and Antibiotic Antimycotic Solution (100 U penicillin, 100 μg/mL streptomycin and 0.25 μg/mL amphotericin B; Sigma-Aldrich, St. Louis, MO, USA) at 37 °C in a humidified incubator with a 5% CO2/95% air atmosphere.
(§2) In the cytotoxicity tests, SH-SY5Y cells were seeded at a density of 5 × 10^3 cells/well in a 96-well plate and grown for another 24 h. Cells were then treated in triplicate with serial dilutions (100 μM, 50 μM, 25 μM, 12.5 μM, 6.25 μM, 3.125 μM) of selected compounds. After 48 h, the culture medium in each well was replaced with 100 μL of Resazurin working solution (44 μM). The fluorescent signal of the resorufin was monitored with Excitation λ = 530 nm and Emission λ = 590 nm by using an Envision 2104 Multi-label Microplate Reader (Perkin Elmer, Boston, MA, USA). Measurements were performed at time 0 and after 1 h of incubation. The percentage of viability was calculated after subtraction of the background (obtained by killing the cells), on the basis of the ratio between the fluorescence values of the cells incubated with a compound and the fluorescence values of cells incubated with the solvent (1% DMSO). The viability of cells incubated with 1% DMSO was considered to be equivalent to 100%. The statistical analysis was carried out with GraphPad Prism 6 (GraphPad Software, Inc., La Jolla, CA, USA) software using an unpaired t-test, and a p-value < 0.05 was considered statistically significant. Cytotoxicity (CC50) was determined from dose-response curves analyzed by using GraphPad Prism software.

[1] = Cytotoxicity, resazurin cell viability assay; format: cell-based, human; conditions: human, SH-SY5Y neuroblastoma cells; SH-SY5Y cells, 48 h; mean ± SEM
Experimental: as §1, §2

[2] = Mycobacterium tuberculosis, H37RA

## Cc1ccc(C=NNC(=O)c2nnc(-c3ccccc3)o2)cc1 (mixture of isomers) [1j, (E/Z)-N’-(4-methylbenzyliden)-5-phenyl-1,3,4-oxadiazol-2-carbohydrazide]
M. tuberculosis H37Ra; [2]
  MIC: 16 µg/mL and 52.2 µM
M. tuberculosis H37Rv
  MIC: > 64 µg/mL
other
  melting point: 200 to 202 °C

## O=C(N/N=C\c1ccccc1)c1nnc(-c2ccncc2)o1 [1a, (Z)-N’-benzyliden-5-(pyridin-4-yl)-1,3,4-oxadiazol-2-carbohydrazide]
M. tuberculosis H37Ra; [2]
  MIC: 64 µg/mL and 218 µM
M. tuberculosis H37Rv
  MIC: > 64 µg/mL
other
  melting point: 207 to 209 °C

## O=C(N/N=C\c1ccc(Cl)cc1)c1nnc(-c2ccncc2)o1 [1b, (Z)-N’-(4-chlorobenzyliden)-5-(pyridin-4-yl)-1,3,4-oxadiazol-2-carbohydrazide]
M. tuberculosis H37Ra
  MIC: >64 (-) μg/mL
M. tuberculosis H37Ra; [2]
  MIC: > 64 µg/mL
M. tuberculosis H37Rv
  MIC: > 64 µg/mL

## Cc1ccc(/C=N\NC(=O)c2nnc(-c3ccncc3)o2)cc1 [1c, (Z)-N’-(4-methylbenzyliden)-5-(pyridin-4-yl)-1,3,4-oxadiazol-2-carbohydrazide]
M. tuberculosis H37Ra; [2]
  MIC: 64 µg/mL and 195 µM
M. tuberculosis H37Rv
  MIC: > 64 µg/mL

## O=C(N/N=C\c1ccc[nH]1)c1nnc(-c2ccncc2)o1 [1d, (Z)-N’-((1H-pyrrol-2-yl)methylen)-5-(pyridin-4-yl)-1,3,4-oxadiazol-2-carbohydrazide]
M. tuberculosis H37Ra; [2]
  MIC: 64 µg/mL and 226 µM
M. tuberculosis H37Rv
  MIC: > 64 µg/mL

## O=C(N/N=C\c1ccccn1)c1nnc(-c2ccncc2)o1 [1e, (Z)-N’-(pyridin-2-ylmethylen)-5-(pyridin-4-yl)-1,3,4-oxadiazol-2-carbohydrazide]
M. tuberculosis H37Ra; [2]
  MIC: 32 µg/mL and 108 µM
M. tuberculosis H37Rv
  MIC: 16 µg/mL
M. tuberculosis H37Rv; […], value in brackets
  MIC: 54 µM
other
  melting point: 255 to 259 °C

## O=C(N/N=C\c1ccncc1)c1nnc(-c2ccncc2)o1 [1f, (Z)-5-(pyridin-4-yl)-N’-(pyridin-4-ylmethylen)-1,3,4-oxadiazol-2-carbohydrazide]
M. tuberculosis H37Ra; [2]
  MIC: 64 µg/mL and 217 µM
M. tuberculosis H37Rv
  MIC: > 64 µg/mL

## O=C(N/N=C\c1ccco1)c1nnc(-c2ccncc2)o1 [1g, (Z)-N’-(furan-2-ylmethylen)-5-(pyridin-4-yl)-1,3,4-oxadiazol-2-carbohydrazide]
M. tuberculosis H37Ra; [2]
  MIC: 64 µg/mL and 226 µM
M. tuberculosis H37Rv
  MIC: > 64 µg/mL
other
  melting point: 236 to 242 °C

## O=C(N/N=C\c1ccccc1)c1nnc(-c2ccccc2)o1 [1h, (Z)-N’-benzyliden-5-phenyl-1,3,4-oxadiazol-2-carbohydrazide]
M. tuberculosis H37Ra; [2]
  MIC: 8 µg/mL and 27.4 µM
SH-SY5Y cells
  Cytotoxicity (in words): no cytotoxicity at tested concentrations
SH-SY5Y cells; 3.125 µM
  Viability (%) vs DMSO: 100 ± 13%
SH-SY5Y cells; 6.25 µM
  Viability (%) vs DMSO: 99 ± 13%
SH-SY5Y cells; 12.5 µM
  Viability (%) vs DMSO: 99 ± 11%
SH-SY5Y cells; 25 µM
  Viability (%) vs DMSO: 99 ± 15%
SH-SY5Y cells; 50 µM
  Viability (%) vs DMSO: 100 ± 14%
SH-SY5Y cells; 100 µM
  Viability (%) vs DMSO: 97 ± 12%
[1]
  CC50 at 48 h: > 100 µM
M. tuberculosis H37Rv
  MIC: > 64 µg/mL
other
  melting point: 194 to 196 °C

## O=C(N/N=C\c1ccc(Cl)cc1)c1nnc(-c2ccccc2)o1 [1i, (Z)-N’-(4-chlorobenzyliden)-5-phenyl-1,3,4-oxadiazol-2-carbohydrazide]
M. tuberculosis H37Ra; [2]
  MIC: 16 µg/mL and 48.9 µM
M. tuberculosis H37Rv
  MIC: > 64 µg/mL
other
  melting point: 243 to 245 °C

## O=C(N/N=C\c1ccc[nH]1)c1nnc(-c2ccccc2)o1 [1k, (Z)-N’-((1H-pyrrol-2-yl)methylen)-5-phenyl-1,3,4-oxadiazol-2-carbohydrazide]
M. tuberculosis H37Ra; [2]
  MIC: 8 µg/mL and 28.3 µM
SH-SY5Y cells; 3.125 µM
  Viability (%) vs DMSO: 100 ± 13%
SH-SY5Y cells; 6.25 µM
  Viability (%) vs DMSO: 100 ± 13%
SH-SY5Y cells; 12.5 µM
  Viability (%) vs DMSO: 101 ± 14%
SH-SY5Y cells; 25 µM
  Viability (%) vs DMSO: 81 ± 12%
SH-SY5Y cells; 50 µM
  Viability (%) vs DMSO: 49 ± 7%
SH-SY5Y cells; 100 µM
  Viability (%) vs DMSO: 37 ± 6%
[1]
  CC50 at 48 h: 50 ± 6 µM
M. tuberculosis H37Rv
  MIC: 8 µg/mL
M. tuberculosis H37Rv; […], value in brackets
  MIC: 28.3 µM
other
  melting point: 185 to 187 °C

## O=C(N/N=C\c1ccccn1)c1nnc(-c2ccccc2)o1 [1l, (Z)-5-phenyl-N’-(pyridin-2-ylmethylen)-1,3,4-oxadiazol-2-carbohydrazide]
M. tuberculosis H37Ra; [2]
  MIC: 8 µg/mL and 27.4 µM
SH-SY5Y cells; 3.125 µM
  Viability (%) vs DMSO: 100 ± 12%
SH-SY5Y cells; 6.25 µM
  Viability (%) vs DMSO: 100 ± 12%
SH-SY5Y cells; 12.5 µM
  Viability (%) vs DMSO: 98 ± 13%
SH-SY5Y cells; 25 µM
  Viability (%) vs DMSO: 93 ± 13%
SH-SY5Y cells; 50 µM
  Viability (%) vs DMSO: 70 ± 10%
SH-SY5Y cells; 100 µM
  Viability (%) vs DMSO: 49 ± 7%
[1]
  CC50 at 48 h: 100 ± 12 µM
M. tuberculosis H37Rv
  MIC: 8 µg/mL
M. tuberculosis H37Rv; […], value in brackets
  MIC: 27.1 µM
other
  melting point: 242 to 243 °C

## O=C(N/N=C\c1ccncc1)c1nnc(-c2ccccc2)o1 [1m, (Z)-5-phenyl-N’-(pyridin-4-ylmethylen)-1,3,4-oxadiazol-2-carbohydrazide]
M. tuberculosis H37Ra; [2]
  MIC: 8 µg/mL and 27.4 µM
SH-SY5Y cells; 3.125 µM
  Viability (%) vs DMSO: 100 ± 14%
SH-SY5Y cells; 6.25 µM
  Viability (%) vs DMSO: 100 ± 14%
SH-SY5Y cells; 12.5 µM
  Viability (%) vs DMSO: 98 ± 16%
SH-SY5Y cells; 25 µM
  Viability (%) vs DMSO: 96 ± 14%
SH-SY5Y cells; 50 µM
  Viability (%) vs DMSO: 87 ± 11%
SH-SY5Y cells; 100 µM
  Viability (%) vs DMSO: 61 ± 9%
[1]
  CC50 at 48 h: 128 ± 16 µM
M. tuberculosis H37Rv
  MIC: > 64 µg/mL
other
  melting point: 243 to 245 °C

## O=C(N/N=C\c1ccco1)c1nnc(-c2ccccc2)o1 [1n, (Z)-N’-(furan-2-ylmethylen)-5-phenyl-1,3,4-oxadiazol-2-carbohydrazide]
M. tuberculosis H37Ra; [2]
  MIC: 8 µg/mL and 28.3 µM
SH-SY5Y cells
  Cytotoxicity (in words): no cytotoxicity at tested concentrations
SH-SY5Y cells; 3.125 µM
  Viability (%) vs DMSO: 100 ± 11%
SH-SY5Y cells; 6.25 µM
  Viability (%) vs DMSO: 100 ± 11%
SH-SY5Y cells; 12.5 µM
  Viability (%) vs DMSO: 99 ± 15%
SH-SY5Y cells; 25 µM
  Viability (%) vs DMSO: 100 ± 12%
SH-SY5Y cells; 50 µM
  Viability (%) vs DMSO: 100 ± 13%
SH-SY5Y cells; 100 µM
  Viability (%) vs DMSO: 97 ± 11%
[1]
  CC50 at 48 h: > 100 µM
M. tuberculosis H37Rv
  MIC: 16 µg/mL
M. tuberculosis H37Rv; […], value in brackets
  MIC: 56.6 µM
other
  melting point: 221 to 223 °C

## NNC(=O)c1ccncc1 [INH, Isoniazid, reference compound]
M. tuberculosis H37Ra; [2]
  MIC: 0.25 µg/mL and 1.8 µM
M. tuberculosis H37Rv
  MIC: 0.25 µg/mL
M. tuberculosis H37Rv; […], value in brackets
  MIC: 1.8 µM

## CO[C@H]1/C=C/O[C@@]2(C)Oc3c(C)c(O)c4c(O)c(c(/C=N/N5CCN(C)CC5)c(O)c4c3C2=O)NC(=O)/C(C)=C\C=C\[C@H](C)[C@H](O)[C@@H](C)[C@@H](O)[C@@H](C)[C@H](OC(C)=O)[C@@H]1C [RIF, reference compound]
M. tuberculosis H37Rv
  MIC: 0.5 µg/mL
M. tuberculosis H37Rv; […], value in brackets
  MIC: 0.6 µM
